From patent publication US12692491B2, “Nucleic acid complexes for screening barcoded compounds” (Children's Medical Center Corporation, priority 2015, dated 2026)

Key:
streptavidin [1] = biological target: T1, streptavidin (Streptomyces avidinii, UniProt P22629); assay: Biotin-streptavidin nanoswitch on-rate and off-rate experiments; type: binding
T1 construct: purchased Rockland
Protocol: This construct used biotinylated versions of two oligonucleotides (var 4 and var 8), which were used in 4× molar excess to the scaffold, while all other oligonucleotides were used in a 10× molar excess. […] The final DNA construct was then diluted 100× from its original concentration of ~16 nM (to 160 pM), and mixed in equal volumes with streptavidin (Rockland) at 6 nM nominal concentration to form the loops, yielding final nominal concentrations of ~80 pM and 3 nM, respectively.
The 25° C. experiment was performed at room temperature, the 4° C. experiment was performed in a cold room, and the 37° C. and 50° C. experiments were performed using a thermal cycler. […] Actual concentrations used to determine the on-rates were measured using spectrophotometry and a HABA assay to determine streptavidin activity.
Off-rate measurements were performed by forming looped construct as described above, and letting the solution sit for at least 24 hours to allow the system to reach equilibrium. […] The 4° C. condition was done in a refrigerator, the 25° C. sample was done in a water bath, and the 37° C. and 50° C. temperatures were done in a thermal cycler. To run all the samples on a single gel, the quenching times were determined relative to the predetermined gel running time.
We additionally used Eyring analysis to fit the temperature dependence of the kinetic rates: […]

streptavidin [2] = biological target: T1, streptavidin; assay: Desthiobiotin-streptavidin nanoswitch off-rate experiments; type: binding
Protocol: Desthiobiotin experiments were conducted in a similar manner as the biotin experiments with slight modifications. […] The off-rate of the desthiobiotin interaction is much faster than the typical 100 minute gel run time. Noting that once a loop opens in the gel, the reptation of the DNA prevents the loop from closing again, we ran samples for different amounts of time in the gel at 15 V/cm and 4° C. and quantified the fraction looped as a function of running time (Appendix A—Supplementary FIG. 5). In addition to allowing the determination of the desthiobiotin-streptavidin off rate, this gel also allowed us to determine the minimum amount of time required to achieve separation of the looped and unlooped bands in the gel. This enabled the use of the standard quenching technique for measuring desthiobiotin off-rates as described in the previous section; these gels were run at 15 V/cm for 10 minutes in pre-chilled electrophoresis buffer.

T1 sequence (P22629 25-183): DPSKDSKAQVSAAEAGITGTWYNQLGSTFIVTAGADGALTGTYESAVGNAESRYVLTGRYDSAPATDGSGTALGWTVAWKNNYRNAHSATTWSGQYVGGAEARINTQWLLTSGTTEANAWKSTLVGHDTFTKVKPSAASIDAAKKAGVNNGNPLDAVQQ

Row | SMILES | on-rate (streptavidin [1]; 150 mM salt, room temperature) | equilibrium enthalpy change ΔH (streptavidin [1]; calculated from on-rate and off-rate measurements) [kcal/mol] | dissociation time (streptavidin [1]; physiological salt conditions and 25° C.) [days] | off-rate of streptavidin-desthiobiotin (streptavidin [2]; 4° C.) [min] | off-rate of streptavidin-desthiobiotin (streptavidin [2]; room temperature) [min]
1 | O=C(O)CCCC[C@@H]1SC[C@@H]2NC(=O)N[C@@H]21 [biotin] | 4.0±0.7×10^6 M^−1s^−1 | 26.01 ± 0.05 | 9.7 ± 0.4 |  | 
2 | C[C@@H]1NC(=O)N[C@@H]1CCCCCC(=O)O [desthiobiotin] |  |  |  | 35.3 ± 7.5 | 8.6 ± 1.2
